Measurements published in patent publication US11168087B2, “Substituted imidazo[1,2-b]pyridazines, substituted imidazo[1,5-b]pyridazines, related compounds, and their use in the treatment of medical disorders” (BIAL—R&D Investments, S.A., priority 2016, dated 2021).
≈ marks a conversion by molar mass, not a printed value.

Assays:
[1] = molecular target: T1, glucocerebrosidase (Gcase) (Homo sapiens, UniProt P04062); test: Glucocerebrosidase (Gcase) activation assay, 4-methylumbelliferyl-beta-D-glucopyranoside substrate, with saposin C; assay type: biochemical; settings: 0.25 h; for activation at 0.1 µM: read-out: Percent Gcase Activation 0.1 μM Test Compound; for activation at 1 µM: read-out: Percent Gcase Activation 1 μM Test Compound
T1 construct: micellar solution containing 10 nM GCase and 100 nM saposin C
T1 sequence (P04062 40-536): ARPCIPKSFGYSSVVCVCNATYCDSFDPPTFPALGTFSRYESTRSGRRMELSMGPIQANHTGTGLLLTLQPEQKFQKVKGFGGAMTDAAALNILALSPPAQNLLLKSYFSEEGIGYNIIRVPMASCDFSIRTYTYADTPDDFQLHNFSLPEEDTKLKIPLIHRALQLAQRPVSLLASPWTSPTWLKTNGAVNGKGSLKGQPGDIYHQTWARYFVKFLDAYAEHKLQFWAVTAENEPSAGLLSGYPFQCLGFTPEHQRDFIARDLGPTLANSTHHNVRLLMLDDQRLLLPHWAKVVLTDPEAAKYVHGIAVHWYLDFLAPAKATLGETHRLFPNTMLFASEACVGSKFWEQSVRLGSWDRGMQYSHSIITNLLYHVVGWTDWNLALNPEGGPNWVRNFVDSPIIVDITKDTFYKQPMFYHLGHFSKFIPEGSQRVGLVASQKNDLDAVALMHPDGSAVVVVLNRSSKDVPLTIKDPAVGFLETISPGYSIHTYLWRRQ
In short: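 Human GCase (10 nM) with 100 nM saposin C in Triton X-100/phosphatidylserine micelles, citrate-phosphate pH 4.7, preincubated with compound 30 min RT; 2 mM 4-MU-β-glucoside (substrate solution) added, 15 min RT, stopped with glycine pH 12.5, fluorescence 365/440 nm. Screened at 1.0 and 0.1 μM; 8-point curves from 5 μM top.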

[2] = Compound solubility in water; assay type: physicochemical

| activation at 0.1 µM [1] [%] | activation at 1 µM [1] [%] | solubility [2] [µg/mL] | SMILES |
| --- | --- | --- | --- |
| < 5 | 5 to 20 | 0.7 (≈ 1.99 µM) | Cc1cc(-c2cccnc2)nc2c(C(=O)NC(C)(C)C3CC3)nsc12 |
| 5 to 20 | > 20 | 23.1 (≈ 62 µM) | CCCCCCOC1CCC(NC(=O)c2ncc3c(C)cc(C)nn23)CC1 (stereo not drawn) |
